Reference: paper PMC7175277, “Hydroxylamine Analogue of Agmatine: Magic Bullet for Arginine Decarboxylase” (Biomolecules, 2020)
“Also recorded” adds a separate entry of the source.

What was measured:
[1] = tested on: Acremonium chrysogenum high-cephalosporin-yielding (HY) RNCM F-4081D; assay: Fungal growth inhibition (drop-dilution, CD agar), HY strain; type: cell-based; settings: Hapsidospora chrysogena, 336 h, read-out: Growth inhibition
Excerpt: Two strains of Acremonium chrysogenum were used in this study: the wild-type (Brotzu) isolate ATCC 11550 (WT) and high-cephalosporin-yielding RNCM F-4081D (HY), derived from the WT [37]. The cultivation conditions were the same as previously described. The filamentous fungi were cultivated on agarized Czapek-Dox (CD) medium (30 g/L sucrose, 2 g/L NaNO3, 1 g/L K2HPO4, 0.5 g/L MgSO4×7 H2O, 0.5 g/L KCl, 0.01 g/L FeSO4×7 H2O, 20 g/L agar, pH 7.0–7.4). To determine the toxic effect of AO-Agm, APA, DFMA and DFMO on the growth of fungal cells the drop-dilution method was used with some modifications as described earlier. Cells were collected from agar slants and diluted with 0.9% NaCl solution up to OD600 = 0.5 (basic concentration), followed by serial tenfold dilutions with the same solution. […] The inoculated Petri dishes were incubated for 21 days at 26 °C. The inhibitory effects of the compounds were measured every three days after inoculation and evaluated by measuring the ratio of colony growth on agarized CD medium supplemented with AO-Agm, APA, DFMA, or DFMO to the growth in the control (agarized CD medium without any additions). The formula: growth inhibition % = [(Dc − Dt)/Dc] × 100, where Dc indicates the colony diameter in control set, and Dt indicates the colony diameter in the treatment set that was used to determine the percent of fungal growth inhibition. The data recorded were measured in triplicate and repeated at least twice.

[2] = target: E. coli ODC (Escherichia coli, UniProt P21169); assay: E. coli ODC activity assay (HPLC of Put); type: biochemical
E. coli ODC, sequence (P21169 whole entry): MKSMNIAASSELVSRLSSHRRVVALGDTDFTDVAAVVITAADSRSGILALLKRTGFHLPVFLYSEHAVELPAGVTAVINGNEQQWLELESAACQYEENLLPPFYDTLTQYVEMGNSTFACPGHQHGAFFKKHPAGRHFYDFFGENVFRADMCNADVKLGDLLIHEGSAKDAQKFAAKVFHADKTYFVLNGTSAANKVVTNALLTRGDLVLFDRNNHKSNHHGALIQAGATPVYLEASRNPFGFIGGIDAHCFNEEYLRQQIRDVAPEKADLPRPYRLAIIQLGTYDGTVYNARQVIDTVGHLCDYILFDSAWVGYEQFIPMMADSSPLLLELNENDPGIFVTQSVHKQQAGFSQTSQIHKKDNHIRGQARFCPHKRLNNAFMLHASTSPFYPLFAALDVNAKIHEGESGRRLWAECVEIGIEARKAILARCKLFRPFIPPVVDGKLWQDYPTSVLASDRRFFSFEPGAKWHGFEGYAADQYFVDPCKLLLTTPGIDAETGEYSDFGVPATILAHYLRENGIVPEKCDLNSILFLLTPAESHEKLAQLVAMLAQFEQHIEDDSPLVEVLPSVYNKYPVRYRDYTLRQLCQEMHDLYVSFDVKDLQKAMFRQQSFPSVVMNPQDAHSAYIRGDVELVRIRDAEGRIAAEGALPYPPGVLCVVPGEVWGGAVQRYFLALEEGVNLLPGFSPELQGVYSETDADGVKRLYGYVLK
Experimental: The purification was performed using a modified procedure of earlier publication. E. coli strain DH5α was grown in Luria-Bertani broth at +37 °C with shaking (200 rpm) overnight. The cells were collected by centrifugation and the pellet was homogenized with Potter-Elvehjem in 10 volumes (w/v) of ice-cold 50 mM Tris-HCl pH 7.4, 1 mM DTT. The cell debris was removed by centrifugation at 12,000 g for 30 min at +4 °C. Solid (NH4)2SO4 was added to the supernatant, and the pellet precipitating between 39% and 53% saturation was separated. The precipitate was resuspended in ice-cold buffer containing 50 mM Tris-HCl pH 7.4 and 1 mM DTT and desalted by passage through Sephadex G-25 column (NAP-10 column, GE Healthcare). The protein concentration was measured with Bio-Rad protein reagent, and the partially purified enzyme preparation was mixed with 20% glycerol and aliquoted for storage at −80 °C.
The ADC reaction mixture contained 50 mM Tris-HCl pH 7.8, 4 mM MgCl2, 1 mM DTT, 1.0 or 0.1 mM PLP and 20 μg of partially purified enzyme preparation in a total volume of 162 μL. The ODC reaction mixture contained 50 mM Tris-HCl pH 7.8, 1 mM EDTA, 2.4 mM DTT, 0.1 mM PLP and 20 μg of partially purified enzyme preparation. […] After incubation for 30 min (ADC) or 20 min (ODC) at +40 °C, 20 μL of 50% sulphosalicylic acid containing 50 μM diaminoheptane (internal standard) was added and the samples were analyzed for the content of agmatine (ADC) and Put (ODC) with HPLC as described previously. The kinetic parameters and IC50 values were determined with the aid of GraphPad Prism version 5.03 using nonlinear regression analysis.

[3] = tested on: DU145 prostate cancer cells; assay: Intracellular polyamine pools of DU145 cells; type: cell-based; settings: 3 days
Experimental: DU145 prostate cancer cells were cultured in high-glucose Dulbecco’s Modified Eagle’s Medium supplemented with 10% heat-inactivated fetal bovine serum, 2 mM L-glutamine and 50 μg/mL gentamycin (all from Sigma-Aldrich). The cells were plated on 6-well plates and allowed to attach overnight. […] The cells were harvested, and the pellet was mixed with 150 μL of 5% sulphosalicylic acid containing 5 μM diaminoheptane (internal standard). Polyamine analysis was carried out as described previously.

[4] = AO-Agm 10 μM in the presence of SC (1 mM)
[5] = AO-Agm 100 μM in the presence of SC (1 mM)
[6] = AO-Agm 1 mM in the presence of SC (1 mM)

N=C(N)NCCCON [AO-Agm, 1-aminooxy-3-guanidinopropane]
inhibition at 5000 µM [1]: 49% | Potency towards E. coli ODC relative to E. coli ADC [2]: almost two orders of magnitude less potent; also recorded: almost two orders of magnitude less efficient | Put [3, 4]: 922 ± 60 pmol/mg Protein | Spd [3, 4]: 6405 ± 61 pmol/mg Protein | Spm [3, 4]: 3903 ± 72 pmol/mg Protein | Put ([3]; AO-Agm 10 μM, no SC): 1515 ± 98 pmol/mg Protein | Spd ([3]; AO-Agm 10 μM, no SC): 7237 ± 73 pmol/mg Protein | Spm ([3]; AO-Agm 10 μM, no SC): 3782 ± 55 pmol/mg Protein | Put [3, 5]: 954 ± 115 pmol/mg Protein | Spd [3, 5]: 6280 ± 122 pmol/mg Protein | Spm [3, 5]: 3621 ± 87 pmol/mg Protein | Put ([3]; AO-Agm 100 μM, no SC): 1447 ± 43 pmol/mg Protein | Spd ([3]; AO-Agm 100 μM, no SC): 7047 ± 155 pmol/mg Protein | Spm ([3]; AO-Agm 100 μM, no SC): 3682 ± 152 pmol/mg Protein | Spd [3, 6]: 1074 ± 159 pmol/mg Protein | Spm [3, 6]: 2389 ± 105 pmol/mg Protein | Put ([3]; AO-Agm 1 mM, no SC): 1074 ± 30 pmol/mg Protein | Spd ([3]; AO-Agm 1 mM, no SC): 3609 ± 124 pmol/mg Protein | Spm ([3]; AO-Agm 1 mM, no SC): 3795 ± 98 pmol/mg Protein
